Measurements: patent US20240390301A1, “COMBINATIONS OF PERIPHERAL 5-HT2A RECEPTOR ANTAGONISTS AND CENTRAL 5-HT2A RECEPTOR AGONISTS” (priority 2021, published 2024)
Like-named read-outs stand apart in the source and are kept apart here.

Assays:
[1] = tested on: DOPR-induced elevation of MABP; experiment: Effect on DOPR-induced blood pressure (MABP) elevation in anesthetized rats; type: in vivo, Sprague-Dawley rats
Description: Key peripheral 5-HT2A receptor antagonists were tested for their ability to block the increases in blood pressure (BP) induced by a maximally effective dose (in terms of HTR response) of 2,5-dimethoxy-4-propylamphetamine (DOPR) in anesthetized rats, with the key results summarized in FIGS. 5-9. FIG. 5 depicts in a bar graph the effect of xylamidine pre-treatment on DOPR-induced elevation of MABP in the rat. The indicated doses of xylamidine or vehicle were administered SC, followed 10 minutes later by DOPR (0.32 mg/kg, SC), and mean percent change in MABP relative to the baseline recording for each group was calculated for the 20 minutes immediately after DOPR administration (10-30 min after administration of xylamidine). *p<0.05, **p<0.01 vs. vehicle using Dunnett's multiple comparison test. FIG. 6 depicts in a bar graph the effect of BW501C67 pre-treatment on DOPR-induced elevation of MABP in the rat. The indicated doses of BW501C67 or vehicle were administered SC, followed 10 minutes later by DOPR (0.32mg/kg, SC), and mean percent change in MABP relative to the baseline recording for each group was calculated for the 20 minutes immediately after DOPR administration (10-30 min after administration of BW501C67). *p<0.05 vs. vehicle using Dunnett's multiple comparison test. FIG. 7 depicts in a bar graph the effect of xylamidine pre-treatment on DOPR-induced elevation of MABP in the rat. The indicated doses of xylamidine or vehicle were administered SC. followed 10 minutes later by DOPR (0.32 mg/kg, SC), and mean percent change in MABP relative to the baseline recording for each group was calculated for the period 45-55 minutes after DOPR administration (55-65 min after administration of xylamidine). *p<0.05, ***p<0.001 vs. vehicle using Dunnett's multiple comparison test. FIG. 8 depicts in a bar graph the effect of BW501C67pre-treatment on DOPR-induced elevation of MABP in the rat. The indicated doses of BW501C67or vehicle were administered SC, followed 10 minutes later by DOPR (0.32 mg/kg, SC), and mean percent change in MABP relative to the baseline recording for each group was calculated for the period 45-55 minutes after DOPR administration (55-65 min after administration of BW501C67). *p<0.05, **p<0.01, ***p<0.001 vs. vehicle using Dunnett's multiple comparison test. FIG. 9 depicts in a bar graph the effect of Compound 14a pre-treatment on DOPR-induced elevation of MABP in the rat. The indicated doses of Compound 14a or vehicle were administered SC, followed 10 minutes later by DOPR (0.32 mg/kg, SC), and mean percent change in MABP relative to the baseline recording for each group was calculated for the 20 minutes immediately after DOPR administration (10-30 min after administration of Compound 14a).
Animals. Adult male Sprague-Dawley rats aged 8 weeks (body weight ˜270 g) were used in these experiments. Animals were pair housed under controlled temperatures and 12-hour light/dark cycles (lights on between 07:00-19:00 h), with ad libitum food and water. The protocol was approved by the Eurofins Advinus Institutional Animal Care and Use Committee. […]
Drugs and Drug administration. […] The 5-HT2A receptor agonist DOPR was then administered at 1 dose (0.32 mg/kg. SC, in saline, calculated based on the free base) to all animals 10 min after pretreatment with the test peripheral antagonist or vehicle (saline). […]

[2] = 37° C.
Description: Method 1. Pooled frozen rat brain homogenate was thawed in a water bath at 37° C. prior to the experiment. Using an Apricot automation workstation, 98 μL/well of blank brain homogenate or 100 mM PBS were added to all 96-well reaction plates (Blank, T0, T10, T30, T60, and T120). […] All reaction plates containing mixtures of compound and brain homogenate were incubated at 37° C. in a water bath for up to 120 minutes. At the end of incubation, 500 uL of stop solution (200 ng/mL tolbutamide and 200 ng/mL labetalol in ACN) was added to precipitate protein and mixed thoroughly for 20 minutes at 4° C. After centrifugation at 4,000 rpm and 4° C. for 20 minutes, an Apricot automation workstation was used to transfer 150 μL of supernatant from each reaction plate to its corresponding bioanaylsis plate, which was shaken for 10 minutes prior to LC-MS/MS analysis.
Method 2. Rat brain tissue homogenate samples were prepared by diluting one volume of whole rat brain tissue with two volumes of dialysis buffer (phosphate buffered saline pH 7.4-0.1 M sodium phosphate and 0.15 M sodium chloride) to yield 3 times diluted homogenate. Test compounds were spiked into 400 μL aliquots (n=3) of rat brain homogenate and the resulting mixtures were incubated at 37° C. […] An aliquot (100 μL) of each sample was transferred to a 96-well deep plate and analyzed by LC-MS/MS.

Rat plasma stability = type: in vitro ADME; conditions: 37° C.
Description: The results were used to confirm that the plasma protein binding results were not confounded by poor plasma stability.
Method 1. […] Plasma was centrifuged at 4,000 rpm for 5 min and any clots were remove.
Method 2. […]

in vivo = type: in vivo, rat; conditions: for Peripheral restriction / brain penetration: from free brain:free plasma ratios; for Kp at 0.167 h / Kp at 0.5 h: male, Sprague Dawley, rat, in vivo; for Kp at 0.167 h: read-out: Free Brain:Free Plasma (0.167 h); for Kp at 0.5 h: read-out: Free Brain:Free Plasma (0.5 h)
Description: The ratio of free brain concentration to free plasma concentration was calculated at 0.167 h and 0.5 h post administration for each compound using the data presented in the above examples and the following formula.
A smaller value for the free brain: free plasma ratio indicates greater peripheral restriction and therefore, better suitability for the methods of the present disclosure.

[3] = 10-30 min after antagonist administration (0.01 to 10 mg/kg SC), DOPR 0.32 mg/kg SC
[4] = 55-65 min after antagonist administration (45-55 min after DOPR 0.32 mg/kg SC)
[5] = calculated using 10 mg/kg PK data
[6] = Method 2: 3 times diluted homogenate

CC(CNC(=N)CNc1ccccc1)Oc1cccc(Cl)c1.O=CO (stereo not shown) [BW501C67, N-(2-(3-chlorophenoxy)propyl)-2-(phenylamino)acetimidamide formate]
Attenuation of DOPR-induced elevation of MABP [1, 3]: significantly attenuated
Attenuation of DOPR-induced elevation of MABP [1, 4]: showing activity at lower doses
% Remaining (120 minutes), rat brain homogenate ([2]; Method 1: 1 μM): 110.8%
% Remaining (120 minutes), rat plasma (Rat plasma stability; Method 1: 2 μM): 100.7%
Peripheral restriction / brain penetration (in vivo): by far the most peripherally restricted compound
Kp at 0.167 h (in vivo; calculated using 1 mg/kg data): 0.0032
Kp at 0.5 h (in vivo; calculated using 1 mg/kg data): 0.0052

CC(C)COc1ccc(CNC(=O)N(Cc2ccc(F)cc2)C2CCN(C(=O)CC[C@H](N)C(=O)O)CC2)cc1 [Compound 14a, (S)-2-amino-5-(4-(1-(4-fluorobenzyl)-3-(4-isobutoxybenzyl)ureido)piperidin-1-yl)-5-oxopentanoic acid]
Attenuation of DOPR-induced elevation of MABP [1, 3]: failed to significantly attenuate
% Remaining (120 minutes), rat plasma (Rat plasma stability; Method 2: 5 μM): 97%
Peripheral restriction / brain penetration (in vivo): good peripheral restriction
Kp at 0.167 h (in vivo; calculated using 1 mg/kg data): 0
Kp at 0.5 h (in vivo; calculated using 1 mg/kg data): 0
Kp at 0.167 h (in vivo; [5]): 0.048
Kp at 0.5 h (in vivo; [5]): 0.035

COc1cccc(CCc2ccccc2OCC(CN(C)C)OC(=O)CCC(=O)O)c1 (stereo not shown) [sarpogrelate]
% Remaining (120 minutes), rat plasma (Rat plasma stability; Method 2: 5 μM): 67%
Peripheral restriction / brain penetration (in vivo): substantial brain penetration
Kp at 0.167 h (in vivo; [5]): 0.37
Kp at 0.5 h (in vivo; [5]): 0.29

COc1cccc(C(=O)Nc2ccc(OCCN3CCOCC3)c(-c3ccnn3C)c2)c1 [temanogrel]
% Remaining (120 minutes), rat brain homogenate [2, 6]: 101%
% Remaining (120 minutes), rat plasma (Rat plasma stability; Method 2: 5 μM): 95%
Peripheral restriction / brain penetration (in vivo): substantial brain penetration
Kp at 0.167 h (in vivo; [5]): 0.33
Kp at 0.5 h (in vivo; [5]): 0.34

COc1cccc(OC(C)CNC(=N)Cc2cccc(C)c2)c1.O=C(O)C(F)(F)F (stereo not shown) [xylamidine, N-(2-(3-methoxyphenoxy)propyl)-2-(m-tolyl) acetimidamide trifluoroacetate]
Attenuation of DOPR-induced elevation of MABP [1, 3]: significantly attenuated
Attenuation of DOPR-induced elevation of MABP [1, 4]: showing activity at lower doses
% Remaining (120 minutes), rat brain homogenate [2, 6]: 100%
% Remaining (120 minutes), rat plasma (Rat plasma stability; Method 2: 5 μM): 94%
Free Brain:Free Plasma (0.167 h) (in vivo; calculated using 1 mg/kg data): 0.018
Free Brain:Free Plasma (0.5 h) (in vivo; calculated using 1 mg/kg data): 0.052
Free Brain:Free Plasma (0.167 h) (in vivo; [5]): 0.018
Free Brain:Free Plasma (0.5 h) (in vivo; [5]): 0.018
